Experimental data: ChEMBL document CHEMBL3102742, “Corallorazines from the myxobacterium Corallococcus coralloides” (J Nat Prod, 2014)
The source made the active and inactive calls.

Columns and labels:
[1] = tested on: Escherichia coli; assay: Antibacterial activity against Escherichia coli DSM 498 up to 1 mg/ml by agar diffusion method; type: functional, organism-based
[2] = tested on: Aspergillus ruber; assay: Antifungal activity against Eurotium rubrum DSM 62631 up to 1 mg/ml by agar diffusion method; type: functional
[3] = tested on: Priestia megaterium; assay: Antibacterial activity against Bacillus megaterium DSM 32 up to 1 mg/ml by agar diffusion method; type: functional, organism-based
[4] = tested on: Mycotypha microspora; assay: Antifungal activity against Mycotypha microspora up to 1 mg/ml by agar diffusion method; type: functional, organism-based
[5] = target: Procathepsin L (Homo sapiens) (UniProt P07711); assay: Inhibition of cathepsin L (unknown origin) up to 10 ug/ml
[6] = target: T1, Neutrophil elastase (Homo sapiens) (UniProt P08246); assay: Inhibition of human leucocyte elastase up to 10 ug/ml
T1 sequence (whole entry): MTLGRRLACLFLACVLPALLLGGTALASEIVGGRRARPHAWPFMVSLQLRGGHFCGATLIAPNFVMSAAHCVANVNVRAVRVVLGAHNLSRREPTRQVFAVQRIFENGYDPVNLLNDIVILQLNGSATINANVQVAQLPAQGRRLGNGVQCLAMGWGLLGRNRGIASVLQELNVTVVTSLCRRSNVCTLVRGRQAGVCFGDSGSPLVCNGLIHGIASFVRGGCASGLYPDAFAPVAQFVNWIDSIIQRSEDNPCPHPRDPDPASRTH

[7] = target: Trypsin (Homo sapiens) (UniProt P07477+P07478+P35030); assay: Inhibition of trypsin (unknown origin) up to 10 ug/ml; type: protein assay
[8] = target: Cannabinoid receptor 2 (Homo sapiens) (UniProt P34972); assay: Binding affinity to CB2 receptor (unknown origin) up to 10 ug/ml
[9] = target: Cathepsin S (Homo sapiens) (UniProt P25774); assay: Inhibition of cathepsin S (unknown origin) up to 10 ug/ml
[10] = target: Prothrombin (Homo sapiens) (UniProt P00734); assay: Inhibition of human thrombin up to 10 ug/ml
[11] = target: Cannabinoid receptor 1 (Homo sapiens) (UniProt P21554); assay: Binding affinity to CB1 receptor (unknown origin) up to 10 ug/ml
[12] = organism: Homo sapiens; assay: Inhibition of chymotrypsin (unknown origin) up to 10 ug/ml
[13] = tested on: Microbotryum violaceum; assay: Antifungal activity against Microbotryum violaceum up to 1 mg/ml by agar diffusion method; type: functional, organism-based
[14] = target: Cathepsin B (Homo sapiens) (UniProt P07858); assay: Inhibition of cathepsin B (unknown origin) up to 10 ug/ml

Cathepsin S (Homo sapiens), sequence (P25774 115-331 limits assumed): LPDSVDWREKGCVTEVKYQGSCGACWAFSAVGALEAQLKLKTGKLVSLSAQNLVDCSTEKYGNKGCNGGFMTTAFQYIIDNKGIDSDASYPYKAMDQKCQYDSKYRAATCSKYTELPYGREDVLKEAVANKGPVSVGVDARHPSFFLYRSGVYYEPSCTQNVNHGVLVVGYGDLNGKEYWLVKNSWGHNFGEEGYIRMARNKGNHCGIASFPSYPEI
Cannabinoid receptor 1 (Homo sapiens), sequence (P21554 whole entry): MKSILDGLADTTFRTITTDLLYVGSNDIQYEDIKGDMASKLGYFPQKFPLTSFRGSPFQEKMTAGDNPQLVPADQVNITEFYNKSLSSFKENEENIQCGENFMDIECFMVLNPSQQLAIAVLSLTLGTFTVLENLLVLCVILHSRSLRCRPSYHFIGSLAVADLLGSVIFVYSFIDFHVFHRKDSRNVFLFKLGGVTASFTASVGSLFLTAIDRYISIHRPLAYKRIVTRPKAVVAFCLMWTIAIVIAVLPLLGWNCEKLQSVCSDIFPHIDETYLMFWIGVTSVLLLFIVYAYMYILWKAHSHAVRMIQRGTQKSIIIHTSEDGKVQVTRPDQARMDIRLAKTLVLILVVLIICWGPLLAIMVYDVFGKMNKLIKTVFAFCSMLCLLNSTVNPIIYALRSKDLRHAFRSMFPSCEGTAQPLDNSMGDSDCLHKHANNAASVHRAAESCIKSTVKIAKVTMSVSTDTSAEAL
Cannabinoid receptor 2 (Homo sapiens), sequence (P34972 whole entry): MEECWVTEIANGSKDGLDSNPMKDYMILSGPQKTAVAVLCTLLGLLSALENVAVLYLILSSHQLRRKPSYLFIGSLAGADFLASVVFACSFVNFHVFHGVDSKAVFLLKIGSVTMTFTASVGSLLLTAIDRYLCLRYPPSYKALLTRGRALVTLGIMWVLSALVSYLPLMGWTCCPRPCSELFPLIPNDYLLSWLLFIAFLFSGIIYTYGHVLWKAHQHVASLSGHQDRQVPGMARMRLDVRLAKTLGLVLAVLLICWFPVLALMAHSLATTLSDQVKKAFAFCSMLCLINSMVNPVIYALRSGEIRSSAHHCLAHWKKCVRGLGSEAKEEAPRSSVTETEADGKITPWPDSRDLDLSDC
Procathepsin L (Homo sapiens), sequence (P07711 114-333 limits assumed): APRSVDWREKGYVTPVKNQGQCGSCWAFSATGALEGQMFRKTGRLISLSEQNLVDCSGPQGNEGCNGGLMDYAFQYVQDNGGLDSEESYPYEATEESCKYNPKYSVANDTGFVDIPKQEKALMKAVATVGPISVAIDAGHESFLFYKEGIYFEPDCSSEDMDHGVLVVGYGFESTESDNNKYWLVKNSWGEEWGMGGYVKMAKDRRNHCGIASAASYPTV

C=C1C(=O)N(C)CC(O)N1C(=O)/C=C/C=C\CC(C)C (centres undefined)
inactive: Activity [1] | Activity [2] | Activity [3] | Activity [4] | inhibition [5] | inhibition [6] | inhibition [7] | Activity [8] | inhibition [9] | inhibition [10] | Activity [11] | inhibition [12] | Activity [13] | inhibition [14]
